Data published in US20260062449A1, “PEPTIDE COMPOSITIONS AND METHODS OF USE” (ONL Therapeutics, Inc., priority 2022, published 2026).
No end group written: not given here.

Tested on: not listed separately
Experiment: Aqueous solubility / solution behaviour of Met-12
Type: physicochemical
Conditions: not given
Description: Experiments have clearly shown that Met-12 has to be dosed as a solution, both in vitro and in vivo, to show optimal activity, and producing such solutions in a largely aqueous medium has proven to be very difficult, especially under conditions which are acceptable for intravitreal injection. Dosing of suspensions or gels of Met-12 leads to major losses of potency. […] Despite extensive development work, the only solution formulations of Met-12 which have been found involve some very low pH solution injections (≤pH 2.8) or neat DMSO injections, all of which are suboptimal for intravitreal injections.

Row | aqueous solubility | Substance
1 | extremely poor aqueous solubility | HHIYLGAVNYIY [Met-12, H^60HIYLGAVNYIY^71]

Same assay, conditions: apparently clear 10 rang/mL solution in 20 mM citrate buffer pH 2.8

Row | Substance | loss of material upon filtration
2 | HHIYLGAVNYIY [Met-12, H^60HIYLGAVNYIY^71] | considerable loss of material upon filtration

Tested on: Jurkat cells
Experiment: Cell viability preservation in vitro: cell confluence of Jurkat cells after 24-hour incubation with FasL
Type: cell-based
Conditions: recombinant His-tagged FasL along with anti-His antibody
Protocol: Compounds (oligopeptides) of the present disclosure were assayed for their ability to effect cell confluence following a 24-hour incubation. Jurkat cells were incubated for 24 hours with varying concentrations of compound (i.e., 200, 66.7, 22.2, 7.4, 2.5, 0.8, 0.3, and 0.1) and with or without recombinant His-tagged FasL along with an anti-His antibody. After the 24-hour incubation, cell confluence was quantified using an S3 Incucyte Imaging System (Sartorius) and a Vi-CELL XR Cell Viability Analyzer (Beckman Coulter) and compared to controls (cells incubated in the absence of compound and cells incubated with a known Fas inhibitor).

Row | Substance | Activity: lowest concentration that prevented loss of cell confluency
3 | NH2-HHIAAGAVNYIY-C(O)NH2 (H-HHIAAGAVNYIY-NH2) [Compound 6] | B (cell protection at 1.0 < x < 10.0 μM)
4 | HHIYLGAVNYIY-NH2 [Compound A, reference compound] | A (cell protection at x < 1.0 μM)
5 | NH2-HHIYLGSSSSNYIY-C(O)NH2 (H-HHIYLGSSSSNYIY-NH2) [Compound 8] | B (cell protection at 1.0 < x < 10.0 μM)
6 | NH2-KHIYLGAVNYIY-C(O)NH2 (H-KHIYLGAVNYIY-NH2) [Compound 10] | A (cell protection at x < 1.0 μM)
7 | NH2-HKIYLGAVNYIY-C(O)NH2 (H-HKIYLGAVNYIY-NH2) [Compound 11] | B (cell protection at 1.0 < x < 10.0 μM)
8 | NH2-HHIYLGGGGGNYIY-C(O)NH2 (H-HHIYLGGGGGNYIY-NH2) [Compound 7] | B (cell protection at 1.0 < x < 10.0 μM)
9 | NH2-KKIYLGAVNYIY-C(O)NH2 (H-KKIYLGAVNYIY-NH2) [Compound 9] | B (cell protection at 1.0 < x < 10.0 μM)
